Data set [1] deals with MOLM-13. The data set is described as follows: Single agent viability assay (96 hours, alamarBlue). The format is cell-based. The following applies: for EC50: Homo sapiens, 96 hours incubation. As for the experimental part: (§1) Mycoplasma-free AML cell lines were maintained in RPMI 10% FBS medium at 37° C. in a humidified incubator with controlled 5% CO2 atmosphere. Cell freezing and thawing was performed following recommendation from ATCC. Genetic profiling of the cell lines used is available in Table 1.
(§2) Cells were seeded in 96-well plates at the optimal density to guarantee linear growth throughout the assay (8000 cells/well for MV(4; 11), 4000 cells/well for MOLM-13 and OCI-AML3, 2000 cells/well for TF1a) in 50 μL of medium. Each experimental condition was tested in technical triplicates, including medium-only and vehicle-treated controls for background correction and normalization, respectively. After seeding, 50 μL of medium containing 9 serial dilutions (1:3) of 2×-concentrated compound were added to the cells to obtain 100 μL of cells with 1×-concentrated compound at each dilution. Cells were then incubated for 96 hours at 37° C. in a controlled 5% CO2 atmosphere, prior to evaluation of cell viability using alamarBlue™ cell viability reagent (ThermoFisher Scientific, Waltham, MA/USA). AlamarBlue™ is a cell viability indicator that uses the natural reducing power of living cells to convert resazurin to the fluorescent molecule, resorufin. Briefly, alamarBlue™ stock solution was diluted 1:20 in the culture medium and after 3 hours incubation fluorescence was measured using a TECAN Infinity 2000 plate reader (Tecan Group Ltd., Männedorf, CH; 540-570 nm excitation wavelength, 580-610 nm emission wavelength). For each condition, the average fluorescence was calculated from the 3 technical replicates; background correction was calculated from the fluorescence of medium-only controls. Data were analyzed using the GraphPad PRISM® version 9.0.1 (GraphPad Software, Inc., La Jolla, CA/USA) to calculate the best-fitting curves and the EC50 values.

Data set [2] deals with MV(4; 11). The data set is described as above. In kind it is cell-based. Conditions: for EC50: Homo sapiens, MV4-11, 96 hours incubation. As for the experimental part: as §1, §2
Data set [3] has as its system OCI-AML3. The data set is described as above. The format is cell-based. Conditions: for EC50: Homo sapiens; for EC50 range in words / reduction of viability (compared to vehicle controls): single agent, 96 hours. As for the experimental part:
as §1, §2

Data set [4] relates to TF-1a. Described as above. In kind it is cell-based. Conditions: for EC50 range in words / reduction of viability (compared to vehicle controls): 96 hours; for EC50: TF-1a. As for the experimental part:
as §1, §2

For data set [5], the system named is R/R AML. The following applies: R/R AML patients treated with gilteritinib; cited from earlier work.
The mark [6] stands for this setting: OCI-AML-3, single agent, 96 hours incubation.
The mark [7] stands for this setting: single agent, 96 hours incubation.

The term EC50 denotes the concentration needed to bring the measured effect to its halfway point.

Consider `N[C@H]1CC[C@H](N[C@@H]2C[C@H]2c2ccccc2)CC1` [iadademstat, (trans)-N1-((1R,2S)-2-phenylcyclopropyl)cyclohexane-1,4-diamine], for which the “EC50 range in words” value is given as “sub-nanomolar range” in data set [1] (96 hours); “sub-nanomolar range” in data set [2] (96 hours); “sub-nanomolar range” in data set [3]; “sub-nanomolar range” in data set [4] (TF1a, single agent). The EC50 in data set [1] is 0.39 nM; in data set [2] it was 0.43 nM; in data set [3] (setting [6]), 0.38 nM; in data set [4] (setting [7]), 0.35 nM. In addition, the “reduction of viability (compared to vehicle controls)” value is “greater than 20%” in data set [3] and “greater than 20%” in data set [4] (TF1a, single agent).
Regarding `COc1ccc(-c2c(-c3ccc(C#N)c(F)c3)nc(N3CCC(N)CC3)n(C)c2=O)cc1F` [CC-90011, 4-[2-(4-aminopiperidin-1-yl)-5-(3-fluoro-4-methoxyphenyl)-1-methyl-6-oxo-1,6-dihydropyrimidin-4-yl]-2-fluorobenzonitrile], the “EC50 range in words” value in data set [1] (96 hours) and in data set [2] (96 hours) was “nanomolar range” in each case. Besides, the EC50 came out at 1.49 nM in data set [1] and 2.3 nM in data set [2].
With `CN1CCN(C(=O)[C@H](CCCN[C@@H]2C[C@H]2c2ccc(F)cc2)NC(=O)c2ccc(-n3ccnn3)cc2)CC1` [bomedemstat, N-[(2S)-5-{[(1R,2S)-2-(4-fluorophenyl)cyclopropyl]amino}-1-(4-methylpiperazin-1-yl)-1-oxopentan-2-yl]-4-(1H-1,2,3-triazol-1-yl) benzamide], the “EC50 range in words” value in data set [1] (96 hours) and in data set [2] (96 hours) was “nanomolar range” in each case. Moreover, the EC50 was determined as 6.08 nM in data set [1] and 3.73 nM in data set [2].
Turning to `CC1(C)CCC(CN2CCN(c3ccc(C(=O)NS(=O)(=O)c4ccc(NCC5CCOCC5)c([N+](=O)[O-])c4)c(Oc4cnc5[nH]ccc5c4)c3)CC2)=C(c2ccc(Cl)cc2)C1` [venetoclax], the EC50 was more than 10000 nM in data set [3] (OCI-AML-3, tested following the method described above) and more than 10000 nM in data set [4] (TF1a, tested following the method described above).
As to `CCc1nc(C(N)=O)c(Nc2ccc(N3CCC(N4CCN(C)CC4)CC3)c(OC)c2)nc1NC1CCOCC1` [gilteritinib, 6-ethyl-3-[[3-methoxy-4-[4-(4-methylpiperazinyl)piperidin-1-yl]phenyl]amino]-5-[(tetrahydro-2H-pyran-4-yl)amino]pyrazine-2-carboxamide], the “EC50 range in words” value in data set [1] (96 hours) is reported as “nanomolar range”; in data set [2] (96 hours), “nanomolar range”; in data set [3] it was “micromolar range”; in data set [4] (TF1a, single agent), “micromolar range”. Also, the “reduction of viability (compared to vehicle controls)” value in data set [1] (96 hours) is on record as approximately 100%; in data set [2] (96 hours), approximately 100%; in data set [3], more than 70%; in data set [4] (TF1a, single agent) it was more than 70%. In addition, the EC50 in data set [1] was 2.91 nM; in data set [2], 0.77 nM; in data set [3] (setting [6]) it was 1160 nM; in data set [4] (setting [7]) it was 1020 nM. Besides, in data set [5], the “R/R AML patients showing complete remission” value was 21%. Besides, the relapse-free survival result in data set [5] is on record as “around 4 months”.

(Values after patent US20250073232A1, “COMBINATIONS OF LSD1 INHIBITORS FOR TREATING MYELOID CANCERS” (ORYZON GENOMICS, S.A., priority 2021, published 2025).)
